These results are taken from publication PMC6344527, “Toxicity and possible mechanisms of action of honokiol from Magnolia denudata seeds against four mosquito species” (Scientific Reports, 2019).

In brackets after ≈: the same amount, converted by molar mass. Where two headings read alike, the source gives them in different places.

For series [1], the system named is larvae of four mosquito species (Cx. pipiens pallens, Ae. aegypti, Ae. albopictus, and An. sinensis). The experiment in a line: contact mortality bioassay, range over four mosquito species. It counts as in vivo. The settings on record: 24 h. The procedure: (§1) A contact mortality bioassay[25] was used to evaluate the toxicity of all compounds against third-instar larvae of the four mosquito species. Each test compound in methanol was suspended in DW with Triton X-100 (20 µL/L). Groups of 20 mosquito larvae were separately placed into paper cups (270 mL) containing each compound solution (250 mL). […] Negative controls consisted of a methanol–Triton X-100 solution in DW.
(§2) Treated and control (methanol–Triton X-100 solution only) larvae were maintained under the same conditions as those used for colony maintenance without providing food. Larval mortalities were determined 24 h post-treatment. […] All treatments were performed three times using 20 larvae per replicate.
(§3) The concentration of the test compounds required to produce 50% AChE inhibitory activity (IC50) was determined using the SAS 9.13 program (Cary: SAS Institute; 2014). Concentration-mortality data were subjected to probit analysis using the SAS 9.13 program. […] Statistical analyses were performed using the SAS 9.13 program. Multiple linear regression and correlation analysis were performed using the SPSS 24 program (Armonk: IBM Corp.; 2016).

Series [2] relates to third-instar larvae of insecticide-susceptible Aedes albopictus. The experiment in a line: contact mortality bioassay, 24 h exposure. It counts as in vivo. The settings on record: for LC50: Aedes albopictus, read-out: LC50 (mg/L) (95% CI); for Slope ± SE: probit slope. The procedure:
as §1, §2, §3

In series [3] the test system is third-instar larvae of insecticide-susceptible Culex pipiens pallens. The series is described as follows: contact mortality bioassay, 24 h exposure. It counts as in vivo. The settings on record: for LC50: Culex pipiens, 24 h; for LC50 / LC90 (mg/L) (95% CI) / LC50 (mg/L) (95% CI): 24 h exposure. The procedure:
as §1, §2, §3

The test system of series [4] is third-instar larvae of insecticide-susceptible Aedes aegypti. The series is described as follows: contact mortality bioassay, 24 h exposure. It counts as in vivo. The settings on record: for LC50: Aedes aegypti, 24 h; for LC50 / LC90 (mg/L) (95% CI) / LC50 (mg/L) (95% CI): 24 h exposure. As for the experimental part:
as §1, §2, §3

Series [5] deals with third-instar larvae of insecticide-resistant Anopheles sinensis. The series is described as follows: contact mortality bioassay, 24 h exposure. To be noted: for LC50: Anopheles sinensis, read-out: LC50 (mg/L) (95% CI); for Slope ± SE: probit slope. It counts as in vivo. The procedure:
as §1, §2, §3

The test system of series [6] is mosquito species larvae. The settings on record: flavonoids and fatty acids; cited from earlier work.
Series [7] has as its system larval Ae. aegypti. Further details: method as in PMID 23676010. To be noted: cited from earlier work.
For series [8], the target named is acetylcholinesterase (AChE) from third-instar Ae. aegypti larvae (Aedes aegypti, UniProt A4GND7). The experiment in a line: acetylcholinesterase inhibition assay. It counts as biochemical. The settings on record: based on IC50 values. The procedure:
The in vitro AChE inhibitory activity of the test compounds was assessed according to the method of Perumalsamy et al.[42]. Third-instar Ae. aegypti larvae were used in all experiments. Whole bodies of 50 larvae were homogenized in 1 mL of ice-cold 0.1 M phosphate buffer (pH 8.0) using a glass tissue homogenizer. After filtering through cheesecloth, the homogenate was centrifuged at 1,000 × g at 4 °C for 5 min. The supernatant was used directly as the enzyme source for AChE. The protein levels were determined using the Bradford Protein Assay Kit (Bio-Rad Laboratories, Hercules, CA, USA) using BSA as the standard. The reaction mixture consisted of 50 µL of the crude enzyme preparation (4.3–4.8 µg protein equivalents), 150 µL of 0.1 M phosphate buffer, 20 µL of 3 mM DTNB in phosphate buffer (pH 7.0), and 1 µL of various concentrations of each test compound in ethanol. The reaction mixture was incubated at 30 °C for 5 min, and 20 µL of 32 mM ATChI was then added to the mixture. After incubation for 30 min, the reaction was terminated by adding 20 µL of 5 mM eserine salicylate. Absorbance was recorded at 412 nm using a VersaMax microplate reader (Molecular Devices, Sunnyvale, CA, USA). […] The results are expressed as the means ± standard errors (SEs) of triplicate samples from three independent experiments.
as §3

Series [9] concerns Larvae of An. sinensis. On the set-up: method as in PMID 26085316. The settings on record: An. sinensis larvae compared with Ae. aegypti larvae; cited from earlier work.
For series [10], the system named is whole-body homogenate from third-instar Aedes aegypti larvae (adenylate cyclase activity). The experiment in a line: determination of cyclic AMP levels (octopamine-sensitive adenylate cyclase activity). It counts as biochemical. To be noted: 100 μM; compared with control group / octopamine. The procedure: The method of Perumalsamy et al.[42] was used to assess the in vitro octopamine-sensitive adenylate cyclase activity of the test compounds. In brief, whole bodies of 75 Ae. aegypti larvae (106.2 mg) were homogenized in 500 µL of 2 mM Tris-maleate buffer (pH 7.4) containing 0.8 mM ethylene glycol tetraacetic acid (EGTA). The adenylate cyclase activity was determined using the cAMP Biotrak Enzymeimmunoassay system according to the manufacturer’s protocol. The assay was conducted in a total volume of 100 µL containing 80 mM Tris-maleate buffer, 5 mM theophylline, 2 mM MgSO4, 0.5 mM adenosine triphosphate (ATP), 0.2 mM EGTA, 50 µL of whole-body homogenate (equivalent to 4.12 µg protein), and 1 µL of the test compounds in Tris-maleate buffer containing 0.2% ethanol. After incubation at 20 °C for 5 min, the reaction was initiated by addition of ATP. Incubation was performed at 30 °C for 3 min in a shaking water bath. The reaction was stopped by boiling for 2 min, and then, the assay tube was cooled and centrifuged at 8,000 × g for 10 min. Fifty microliters of the supernatant were assayed for cAMP levels.
Polystyrene microplates (1 strip of 8 wells) coated with a goat anti-mouse polyclonal antibody were used. Fifty microliters of a mouse monoclonal antibody solution were added to each well except for the blank wells (or the nonspecific binding wells). The wells covered with the adhesive strip were incubated at 25 °C for 1 h in a shaking incubator (480 rpm). After washing with 400 µL of wash buffer four times, 50 μL of the two neolignan samples for cAMP determination and cAMP standard were added to wells. Control, blank (nonspecific binding), and zero standard wells were supplemented with 50 μL of a diluent RD5-55 buffer. […] The optical densities at 450 and 540 nm were determined using the microplate reader described above. The readings at 540 nm were subtracted from the readings at 450 nm. The cAMP concentrations are expressed as nmol/µg protein. The results are expressed as the means ± SEs of triplicate samples from three independent experiments.

Series [11] deals with AaAQP4. On the set-up: method as in PMID 24260359. The settings on record: larval Ae. aegypti anal gills; cited from earlier work.
Series [12] concerns AaV-type H^+-ATPase. Further details: method as in PMID 24260359. To be noted: larval Ae. aegypti; cited from earlier work.
Where [13] appears, read: Table 2, KS-CP strain, read-out: LC50 (mg/L) (95% CI).
Where [14] appears, read: Table 3, read-out: LC50 (mg/L) (95% CI).
The mark [15] stands for this setting: Table 3, listed as Pure linoleic acid.
Setting [16] is: Table 5, larvae resistant to deltamethrin and temephos, 24 h exposure.
Setting [17] is: Table 2, KS-CP strain, listed as Pure palmitic acid.
The mark [18] stands for this setting: Table 3, listed as Pure palmitic acid.

Sequence of acetylcholinesterase (AChE) from third-instar Ae. aegypti larvae (A4GND7 37-679): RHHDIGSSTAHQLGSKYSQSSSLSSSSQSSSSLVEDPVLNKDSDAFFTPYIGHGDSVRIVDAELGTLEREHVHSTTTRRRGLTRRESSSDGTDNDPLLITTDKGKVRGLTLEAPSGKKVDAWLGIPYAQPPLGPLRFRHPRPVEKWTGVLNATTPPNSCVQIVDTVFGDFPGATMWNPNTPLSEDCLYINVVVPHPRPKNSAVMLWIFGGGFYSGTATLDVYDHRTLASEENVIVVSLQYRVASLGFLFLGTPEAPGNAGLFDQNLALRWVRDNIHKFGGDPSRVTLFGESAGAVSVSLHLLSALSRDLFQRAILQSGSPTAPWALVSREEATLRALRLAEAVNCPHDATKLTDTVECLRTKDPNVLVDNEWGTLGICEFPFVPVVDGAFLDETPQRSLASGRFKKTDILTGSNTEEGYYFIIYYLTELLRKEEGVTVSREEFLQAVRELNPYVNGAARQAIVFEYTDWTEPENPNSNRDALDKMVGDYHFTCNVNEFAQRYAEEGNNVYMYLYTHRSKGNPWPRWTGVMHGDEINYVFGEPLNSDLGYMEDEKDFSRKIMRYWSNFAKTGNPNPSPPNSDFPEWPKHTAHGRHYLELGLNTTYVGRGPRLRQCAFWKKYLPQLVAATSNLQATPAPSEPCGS

`CCCCC/C=C\C/C=C\CCCCCCCC(=O)O` [Linoleic acid, (9Z,12Z)-9,12-octadecadienoic acid]: the LC50 was 6.97 to 7.5 µg/mL (≈ 24.9 to 26.7 µM) in [1]; 7.28 mg/L (≈ 26 µM) in series [2] (Table 4, 24 h exposure); 6.97 mg/L (≈ 24.9 µM) in [3] (setting [13]); 7.19 mg/L (≈ 25.6 µM) in series [4] (setting [14]); 7.5 mg/L (≈ 26.7 µM) in series [5] (setting [16]). For the same compound, the “LC90 (mg/L) (95% CI)” value in series [2] (Table 4, 24 h exposure) is reported as 27.81 (20.95–46.02) mg/L; in series [3] (Table 2, KS-CP strain, listed as Natural linoleic acid), 19.41 (15.94–26.34) mg/L; in series [4] (Table 3, listed as Natural linoleic acid), 27.04 (20.52–43.96) mg/L; in [4] (setting [15]), 29.70 (23.19–43.79) mg/L; in [5] (setting [16]), 16.04 (14.05–19.06) mg/L. In addition, the “times less toxic than temephos” value in series [2] (from 24 h LC50 values) is given as 552 times; in series [3] (from 24 h LC50 values), 430 times; in series [4] (from 24 h LC50 values), 575 times. In addition, the “Slope ± SE” value in series [2] (Table 4, 24 h exposure) was 4.4 ± 0.59; in [5] (setting [16]), 3.9 ± 0.56. Besides, the “LC50 (mg/L) (95% CI)” value in [3] (Table 2, KS-CP strain, listed as Pure linoleic acid) was 8.36 (6.09–10.40) mg/L; in series [4] (setting [15]), 7.34 (5.58–8.92) mg/L.
Consider `CCCCCCCCCCCCCCCC(=O)O` [Palmitic acid, hexadecanoic acid], for which the LC50 is 32.6 to 47.6 µg/mL (≈ 127 to 186 µM) in [1]; 34.50 to 42.96 µg/mL in series [6]; 36.9 mg/L (≈ 144 µM) in series [2] (Table 4, 24 h exposure); 32.6 mg/L (≈ 127 µM) in series [3] (setting [13]); 33.5 mg/L (≈ 131 µM) in [4] (setting [14]); 47.6 mg/L (≈ 186 µM) in series [5] (setting [16]). Moreover, the “LC90 (mg/L) (95% CI)” value in series [2] (Table 4, 24 h exposure) was 135.1 (104.3–196.9) mg/L; in series [3] (Table 2, KS-CP strain, listed as Natural palmitic acid) it was 112.3 (88.96–156.2) mg/L; in [3] (setting [17]), 119.3 (94.38–166.4) mg/L; in [4] (Table 3, listed as Natural palmitic acid) it was 129.3 (99.59–189.2) mg/L; in [4] (setting [18]) it was 204.1 (139.4–378.1) mg/L; in [5] (setting [16]), 192.8 (148.1–282.2) mg/L. The “Slope ± SE” value is listed as 3.1 ± 0.38 in [2] (Table 4, 24 h exposure) and 2.1 ± 0.22 in [5] (setting [16]). The “LC50 (mg/L) (95% CI)” value in [3] (setting [17]) is 34.92 (29.48–40.76) mg/L; in [4] (setting [18]) it was 36.49 (29.30–44.83) mg/L.
Take `Oc1ccccc1` [Phenol]: the LC50 was 194 µg/mL (≈ 2060 µM) in [7]; 41.7 mg/L (≈ 443 µM) in series [3] (Table 6, structure-activity series, read-out: LC50 (mg/L) (95% CI)); 43.2 mg/L (≈ 459 µM) in series [4] (Table 7, structure-activity series, read-out: LC50 (mg/L) (95% CI)). Besides, the “AChE inhibitory activity (in words)” value in [8] is “lowest of all of the compounds that were examined”. Besides, the “LC90 (mg/L) (95% CI)” value in series [3] (Table 6, structure-activity series) was 185.1 (133.5–306.6) mg/L; in [4] (Table 7, structure-activity series), 207.1 (145.1–363.6) mg/L.
Regarding `COP(=S)(OC)Oc1ccc(Sc2ccc(OP(=S)(OC)OC)cc2)cc1` [Temephos, temephos, reference compound], the “relative susceptibility ratio (RSR)” value in series [9] is recorded as 29. Moreover, the LC50 in [2] (24 h) amounted to 0.0132 mg/L (≈ 0.0283 µM); in series [3] (read-out: LC50 (mg/L) (95% CI), Table 2, KS-CP strain) it was 0.0162 mg/L (≈ 0.0347 µM); in [4] (read-out: LC50 (mg/L) (95% CI), Table 3), 0.0125 mg/L (≈ 0.0268 µM); in series [5] (24 h) it was 0.4 mg/L (≈ 0.857 µM). The “LC90 (mg/L) (95% CI)” value is 0.0778 (0.0547–0.1343) mg/L in series [2] (Table 4, 24 h exposure); 0.0749 (0.0551–0.1177) mg/L in series [3] (Table 2, KS-CP strain); 0.0658 (0.0479–0.1059) mg/L in [4] (Table 3); 1.39 (1.05–2.13) mg/L in series [5] (setting [16]). Also, the “Slope ± SE” value in series [2] (Table 4, 24 h exposure) stood at 1.6 ± 0.21; in series [5] (setting [16]), 2.2 ± 0.15.
`Cc1ccc(C(C)C)cc1O` [carvacrol]: the LC50 in series [7] is 69 µg/mL (≈ 459 µM).
As to `CC1(C)[C@H](C(=O)O[C@H](C#N)c2cccc(Oc3ccccc3)c2)[C@@H]1C=C(Br)Br` [deltamethrin], the “relative susceptibility ratio (RSR)” value in series [9] is 611.
`COP(=S)(OC)Oc1ccc(SC)c(C)c1` [fenthion]: the “relative susceptibility ratio (RSR)” value in series [9] is recorded as 11.
`NCC(O)c1ccc(O)cc1` (centres unmarked) [octopamine, reference compound]: the cAMP levels result in series [10] is reported as “did not differ significantly”.
Turning to `CCCCC/C=C/C=C/C(=O)NCC(C)C` [pellitorine], the AaAQP4 expression levels entry in series [11] is given as “inhibited the AaAQP4 expression levels”. Moreover, the “expression levels of the gene encoding AaV-type H^+-ATPase” value in [12] is given as “slight decreases”.
